Experiments:
LucPpy = biological target: T1, LucPpy (Photinus pyralis, UniProt P08659); assay: Stability of reagent composition with LucPpy and detergent (RT, pH 7.0); assay type: biochemical; settings: for Half-life of Luminescence Activity: Common firefly luciferase (P. pyralis); for Average Relative Light Units / Percent of Luminescence Remaining: LucPpy
T1 construct: purchased Promega E170A
Source text: (§1) The detergents used for inhibition of endogenous ATPase activity in a sample also affect activity of luciferase. […] It is ultimately the extended stability of a reagent composition, comprising an ATPase inhibitor and a luciferase enzyme, which provides a composition useful for measuring ATP, in a sample or samples, over an extended period of time.
(§2) In this experiment, the stability of a reagent composition comprising wild type LucPpy was compared to the stability of a reagent composition comprising LucPpe2m146 at about 23° C. (room temperature). The various reagent compositions had varying detergent concentrations.
(§3) Two solutions were created as listed below. One contained the luciferase, luciferin, MgSO4, and buffer (reagent composition). The other solution contained media plus ATP (media solution).
(§4) 50 μg/ml enzyme (LucPpy is Promega catalog #E170A)
(§5) Detergent (at various concentrations, see table below)
(§6) For each reagent composition, all ingredients except the luciferase enzyme were assembled; the enzyme was then added immediately before the first luminescence reading was taken. Immediately after addition of enzyme to each reagent composition and for various timepoints thereafter, 100 μl aliquots of the reagent composition were added to wells of a 96-well microtitre luminometer plate in triplicate. To these were added 100 μl Media Solution containing the ATP. Luminescence was then immediately read on a Dynex MLX microtitreplate luminometer, 0.5 second reads per well. The average relative light unit values as well as the reaction half lives are listed below in Table I and the percent of original luminescence remaining at each timepoint is listed in Table J below. The timepoint at the top of the column indicates the time at which the first rlu measurement for the samples in that column was read. […] Times listed in Table I are the same for Table J. The values for sulfobetaine and for CTAB were generated on different days, they are presented with the control values generated in the same experiment.

LucPpe2m146 = assay: Stability of reagent composition with LucPpe2m146 and detergent (RT, pH 7.0); assay type: biochemical, Photuris pennsylvanica
Source text: as §1, §2, §3, §4, §5, §6

With `CCCCCCCCCCCC[N+](C)(C)Cc1ccccc1.[Br-]` [BDDABr, Benzyldimethyldodecylammonium bromide] the “Half-life of Luminescence Activity” value (LucPpy; conc. 0.100) was “no activity”, the “Half-life of Luminescence Activity” value (LucPpy; conc. 0.500) was “no activity” and the “Average Relative Light Units” value (LucPpy; 0.02%, 0.75 min (head r32)) was 2894.700 rlu. For the same compound, the “Percent of Luminescence Remaining” value (LucPpy; 0.02%, 0.75 min (times of Table I r32)) was 100.00%, the “Average Relative Light Units” value (LucPpy; 0.02%, 38 min (head r32)) was 0.035 rlu and the “Percent of Luminescence Remaining” value (LucPpy; 0.02%, 38 min (times of Table I r32)) was 0.00%. The “Average Relative Light Units” value (LucPpy; 0.02%, 70 min (head r32)) was 0.015 rlu, the “Percent of Luminescence Remaining” value (LucPpy; 0.02%, 70 min (times of Table I r32)) was 0.00% and the “Average Relative Light Units” value (LucPpy; 0.02%, 94 min (head r32)) was 0.016 rlu. The “Average Relative Light Units” value (LucPpy; 0.02%, 122 min (head r32)) was 0.011 rlu, the “Average Relative Light Units” value (LucPpy; 0.1%, 0.75 min (head r18)) was 0.007 rlu and the “Percent of Luminescence Remaining” value (LucPpy; 0.1%, 0.75 min (times of Table I r18)) was 100.00%. For the same compound, the “Average Relative Light Units” value (LucPpy; 0.5%, 0.75 min (head r5)) was 0.001 rlu, the “Percent of Luminescence Remaining” value (LucPpy; 0.5%, 0.75 min (times of Table I r5)) was 100.00% and the “Average Relative Light Units” value (LucPpe2m146; LucPpe2m146, 0.02%, 1.0 min (head r67)) was 26548.60 rlu. The “Percent of Luminescence Remaining” value (LucPpe2m146; LucPpe2m146, 0.02%, 1.0 min (times of Table I r67)) was 100.00%, the “Average Relative Light Units” value (LucPpe2m146; LucPpe2m146, 0.02%, 34 min (head r67)) was 26272.87 rlu and the “Percent of Luminescence Remaining” value (LucPpe2m146; LucPpe2m146, 0.02%, 34 min (times of Table I r67)) was 98.96%. For the same compound, the “Average Relative Light Units” value (LucPpe2m146; LucPpe2m146, 0.02%, 65 min (head r67)) was 25766.43 rlu, the “Percent of Luminescence Remaining” value (LucPpe2m146; LucPpe2m146, 0.02%, 65 min (times of Table I r67)) was 97.05% and the “Average Relative Light Units” value (LucPpe2m146; LucPpe2m146, 0.02%, 115 min (head r67)) was 24155.00 rlu. The “Percent of Luminescence Remaining” value (LucPpe2m146; LucPpe2m146, 0.02%, 115 min (times of Table I r67)) was 90.98%, the “Average Relative Light Units” value (LucPpe2m146; LucPpe2m146, 0.02%, 175 min (head r67)) was 25891.70 rlu and the “Percent of Luminescence Remaining” value (LucPpe2m146; LucPpe2m146, 0.02%, 175 min (times of Table I r67)) was 97.53%. The “Average Relative Light Units” value (LucPpe2m146; LucPpe2m146, 0.02%, 238 min (head r67)) was 24959.1 rlu, the “Percent of Luminescence Remaining” value (LucPpe2m146; LucPpe2m146, 0.02%, 238 min (times of Table I r67)) was 94.01% and the “Average Relative Light Units” value (LucPpe2m146; LucPpe2m146, 0.02%, 286 min (head r67)) was 24510.1 rlu. The “Percent of Luminescence Remaining” value (LucPpe2m146; LucPpe2m146, 0.02%, 286 min (times of Table I r67)) was 92.32%, the “Average Relative Light Units” value (LucPpe2m146; LucPpe2m146, 0.1%, 1.0 min (head r54)) was 29.71 rlu and the “Percent of Luminescence Remaining” value (LucPpe2m146; LucPpe2m146, 0.1%, 1.0 min (times of Table I r54)) was 100.00%. The “Average Relative Light Units” value (LucPpe2m146; LucPpe2m146, 0.1%, 34 min (head r54)) was 66.09 rlu, the “Percent of Luminescence Remaining” value (LucPpe2m146; LucPpe2m146, 0.1%, 34 min (times of Table I r54)) was 222.47% and the “Average Relative Light Units” value (LucPpe2m146; LucPpe2m146, 0.1%, 65 min (head r54)) was 62.19 rlu. For the same compound, the “Percent of Luminescence Remaining” value (LucPpe2m146; LucPpe2m146, 0.1%, 65 min (times of Table I r54)) was 209.32%, the “Average Relative Light Units” value (LucPpe2m146; LucPpe2m146, 0.1%, 115 min (head r54)) was 45.18 rlu and the “Percent of Luminescence Remaining” value (LucPpe2m146; LucPpe2m146, 0.1%, 115 min (times of Table I r54)) was 152.09%. For the same compound, the “Average Relative Light Units” value (LucPpe2m146; LucPpe2m146, 0.1%, 175 min (head r54)) was 33.89 rlu, the “Percent of Luminescence Remaining” value (LucPpe2m146; LucPpe2m146, 0.1%, 175 min (times of Table I r54)) was 114.06% and the “Average Relative Light Units” value (LucPpe2m146; LucPpe2m146, 0.1%, 238 min (head r54)) was 34.46 rlu. For the same compound, the “Percent of Luminescence Remaining” value (LucPpe2m146; LucPpe2m146, 0.1%, 238 min (times of Table I r54)) was 115.98%, the “Average Relative Light Units” value (LucPpe2m146; LucPpe2m146, 0.1%, 286 min (head r54)) was 126.90 rlu and the “Percent of Luminescence Remaining” value (LucPpe2m146; LucPpe2m146, 0.1%, 286 min (times of Table I r54)) was 427.13%. For the same compound, the “Average Relative Light Units” value (LucPpe2m146; LucPpe2m146, 0.5%, 15 min (head r41)) was 2.040 rlu, the “Percent of Luminescence Remaining” value (LucPpe2m146; LucPpe2m146, 0.5%, 15 min (times of Table I r41)) was 100.00% and the “Average Relative Light Units” value (LucPpe2m146; LucPpe2m146, 0.5%, 72 min (head r41)) was 1.140 rlu. The “Percent of Luminescence Remaining” value (LucPpe2m146; LucPpe2m146, 0.5%, 72 min (times of Table I r41)) was 55.90%, the “Average Relative Light Units” value (LucPpe2m146; LucPpe2m146, 0.5%, 124 min (head r41)) was 0.998 rlu and the “Percent of Luminescence Remaining” value (LucPpe2m146; LucPpe2m146, 0.5%, 124 min (times of Table I r41)) was 48.93%. The “Average Relative Light Units” value (LucPpe2m146; LucPpe2m146, 0.5%, 190 min (head r41)) was 0.899 rlu, the “Percent of Luminescence Remaining” value (LucPpe2m146; LucPpe2m146, 0.5%, 190 min (times of Table I r41)) was 44.07% and the “Average Relative Light Units” value (LucPpe2m146; LucPpe2m146, 0.5%, 251 min (head r41)) was 1.042 rlu. The “Percent of Luminescence Remaining” value (LucPpe2m146; LucPpe2m146, 0.5%, 251 min (times of Table I r41)) was 51.10%.

— patent publication US20030104507A1, “Method for detection of ATP” (priority 2001, published 2003)
